Here are results for 1 compound from ChEMBL document CHEMBL5108047 (J Med Chem, 2022).

The structures appear in SMILES notation.

Series [1] can be described thus: AUC in CD-1 mouse at 20 mg/kg, po measured upto 24 hrs by reverse phase LCMS analysis. The class given is ADME, organism-based. More on the design: time < 24 hrs, dose 20 mg/kg, route po. The note with it: in vivo.
The next series concerns HCT-116. Briefly: Antiproliferative activity against BRCA2 knock in human HCT-116 cells assessed as inhibition of cell growth incubated for 7 days with media replacement for every 3 or 4 days. In kind it is functional, cell-based.
Series [2] concerns the target T1, DNA polymerase alpha catalytic subunit (Homo sapiens, UniProt P09884).
T1 sequence (P09884 whole entry): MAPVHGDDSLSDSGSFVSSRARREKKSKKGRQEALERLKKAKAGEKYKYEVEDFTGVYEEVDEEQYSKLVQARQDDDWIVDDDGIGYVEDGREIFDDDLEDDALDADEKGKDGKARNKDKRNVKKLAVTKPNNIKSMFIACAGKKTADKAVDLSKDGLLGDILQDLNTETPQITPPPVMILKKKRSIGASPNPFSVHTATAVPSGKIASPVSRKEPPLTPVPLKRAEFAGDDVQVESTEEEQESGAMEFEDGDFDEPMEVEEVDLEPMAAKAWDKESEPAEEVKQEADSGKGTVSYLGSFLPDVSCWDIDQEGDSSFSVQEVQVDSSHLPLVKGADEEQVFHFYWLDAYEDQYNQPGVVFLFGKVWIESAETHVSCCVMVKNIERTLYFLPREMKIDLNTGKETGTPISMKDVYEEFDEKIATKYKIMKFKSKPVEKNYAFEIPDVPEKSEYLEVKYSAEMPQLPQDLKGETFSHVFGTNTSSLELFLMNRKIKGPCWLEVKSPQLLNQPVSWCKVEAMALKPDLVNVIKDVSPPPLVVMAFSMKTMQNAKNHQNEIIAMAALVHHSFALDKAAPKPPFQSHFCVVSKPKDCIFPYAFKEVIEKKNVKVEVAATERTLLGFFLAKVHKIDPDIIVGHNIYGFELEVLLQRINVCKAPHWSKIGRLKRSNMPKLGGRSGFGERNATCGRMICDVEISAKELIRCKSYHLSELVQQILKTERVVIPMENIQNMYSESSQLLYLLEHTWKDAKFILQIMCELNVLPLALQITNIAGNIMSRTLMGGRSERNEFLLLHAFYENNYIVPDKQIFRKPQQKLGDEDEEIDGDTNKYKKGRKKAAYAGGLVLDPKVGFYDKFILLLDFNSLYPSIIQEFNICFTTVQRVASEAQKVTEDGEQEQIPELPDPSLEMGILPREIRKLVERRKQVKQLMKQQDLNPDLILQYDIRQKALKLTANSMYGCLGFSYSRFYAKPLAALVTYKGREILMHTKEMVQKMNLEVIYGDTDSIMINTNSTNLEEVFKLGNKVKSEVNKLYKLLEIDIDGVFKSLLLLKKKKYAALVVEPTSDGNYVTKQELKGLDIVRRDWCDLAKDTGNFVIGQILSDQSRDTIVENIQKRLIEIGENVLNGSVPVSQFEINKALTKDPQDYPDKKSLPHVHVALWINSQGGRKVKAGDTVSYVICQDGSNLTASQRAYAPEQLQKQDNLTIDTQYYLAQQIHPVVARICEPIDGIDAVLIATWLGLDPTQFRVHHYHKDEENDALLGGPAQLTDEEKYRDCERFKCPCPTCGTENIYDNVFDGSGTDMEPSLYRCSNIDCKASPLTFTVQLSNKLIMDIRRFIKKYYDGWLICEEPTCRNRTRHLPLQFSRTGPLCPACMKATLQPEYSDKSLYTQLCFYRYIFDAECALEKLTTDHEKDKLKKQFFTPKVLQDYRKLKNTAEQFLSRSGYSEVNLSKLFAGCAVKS
The series can be described thus: Inhibition of human DNA polymerase alpha.

Series [3] deals with T2, DNA polymerase theta (Homo sapiens, UniProt O75417). The series can be described thus: Inhibition of human DNA polymerase theta pol domain (1819 to 2590 residues) expressed in Escherichia coli BL21 (DE3) cells preincubated for 15 mins followed by DNA and dNTP addition and measured after 120 mins by Picogreen dye fluorescence intensity analysis.
T2 sequence (O75417 whole entry, the tested form may be a part): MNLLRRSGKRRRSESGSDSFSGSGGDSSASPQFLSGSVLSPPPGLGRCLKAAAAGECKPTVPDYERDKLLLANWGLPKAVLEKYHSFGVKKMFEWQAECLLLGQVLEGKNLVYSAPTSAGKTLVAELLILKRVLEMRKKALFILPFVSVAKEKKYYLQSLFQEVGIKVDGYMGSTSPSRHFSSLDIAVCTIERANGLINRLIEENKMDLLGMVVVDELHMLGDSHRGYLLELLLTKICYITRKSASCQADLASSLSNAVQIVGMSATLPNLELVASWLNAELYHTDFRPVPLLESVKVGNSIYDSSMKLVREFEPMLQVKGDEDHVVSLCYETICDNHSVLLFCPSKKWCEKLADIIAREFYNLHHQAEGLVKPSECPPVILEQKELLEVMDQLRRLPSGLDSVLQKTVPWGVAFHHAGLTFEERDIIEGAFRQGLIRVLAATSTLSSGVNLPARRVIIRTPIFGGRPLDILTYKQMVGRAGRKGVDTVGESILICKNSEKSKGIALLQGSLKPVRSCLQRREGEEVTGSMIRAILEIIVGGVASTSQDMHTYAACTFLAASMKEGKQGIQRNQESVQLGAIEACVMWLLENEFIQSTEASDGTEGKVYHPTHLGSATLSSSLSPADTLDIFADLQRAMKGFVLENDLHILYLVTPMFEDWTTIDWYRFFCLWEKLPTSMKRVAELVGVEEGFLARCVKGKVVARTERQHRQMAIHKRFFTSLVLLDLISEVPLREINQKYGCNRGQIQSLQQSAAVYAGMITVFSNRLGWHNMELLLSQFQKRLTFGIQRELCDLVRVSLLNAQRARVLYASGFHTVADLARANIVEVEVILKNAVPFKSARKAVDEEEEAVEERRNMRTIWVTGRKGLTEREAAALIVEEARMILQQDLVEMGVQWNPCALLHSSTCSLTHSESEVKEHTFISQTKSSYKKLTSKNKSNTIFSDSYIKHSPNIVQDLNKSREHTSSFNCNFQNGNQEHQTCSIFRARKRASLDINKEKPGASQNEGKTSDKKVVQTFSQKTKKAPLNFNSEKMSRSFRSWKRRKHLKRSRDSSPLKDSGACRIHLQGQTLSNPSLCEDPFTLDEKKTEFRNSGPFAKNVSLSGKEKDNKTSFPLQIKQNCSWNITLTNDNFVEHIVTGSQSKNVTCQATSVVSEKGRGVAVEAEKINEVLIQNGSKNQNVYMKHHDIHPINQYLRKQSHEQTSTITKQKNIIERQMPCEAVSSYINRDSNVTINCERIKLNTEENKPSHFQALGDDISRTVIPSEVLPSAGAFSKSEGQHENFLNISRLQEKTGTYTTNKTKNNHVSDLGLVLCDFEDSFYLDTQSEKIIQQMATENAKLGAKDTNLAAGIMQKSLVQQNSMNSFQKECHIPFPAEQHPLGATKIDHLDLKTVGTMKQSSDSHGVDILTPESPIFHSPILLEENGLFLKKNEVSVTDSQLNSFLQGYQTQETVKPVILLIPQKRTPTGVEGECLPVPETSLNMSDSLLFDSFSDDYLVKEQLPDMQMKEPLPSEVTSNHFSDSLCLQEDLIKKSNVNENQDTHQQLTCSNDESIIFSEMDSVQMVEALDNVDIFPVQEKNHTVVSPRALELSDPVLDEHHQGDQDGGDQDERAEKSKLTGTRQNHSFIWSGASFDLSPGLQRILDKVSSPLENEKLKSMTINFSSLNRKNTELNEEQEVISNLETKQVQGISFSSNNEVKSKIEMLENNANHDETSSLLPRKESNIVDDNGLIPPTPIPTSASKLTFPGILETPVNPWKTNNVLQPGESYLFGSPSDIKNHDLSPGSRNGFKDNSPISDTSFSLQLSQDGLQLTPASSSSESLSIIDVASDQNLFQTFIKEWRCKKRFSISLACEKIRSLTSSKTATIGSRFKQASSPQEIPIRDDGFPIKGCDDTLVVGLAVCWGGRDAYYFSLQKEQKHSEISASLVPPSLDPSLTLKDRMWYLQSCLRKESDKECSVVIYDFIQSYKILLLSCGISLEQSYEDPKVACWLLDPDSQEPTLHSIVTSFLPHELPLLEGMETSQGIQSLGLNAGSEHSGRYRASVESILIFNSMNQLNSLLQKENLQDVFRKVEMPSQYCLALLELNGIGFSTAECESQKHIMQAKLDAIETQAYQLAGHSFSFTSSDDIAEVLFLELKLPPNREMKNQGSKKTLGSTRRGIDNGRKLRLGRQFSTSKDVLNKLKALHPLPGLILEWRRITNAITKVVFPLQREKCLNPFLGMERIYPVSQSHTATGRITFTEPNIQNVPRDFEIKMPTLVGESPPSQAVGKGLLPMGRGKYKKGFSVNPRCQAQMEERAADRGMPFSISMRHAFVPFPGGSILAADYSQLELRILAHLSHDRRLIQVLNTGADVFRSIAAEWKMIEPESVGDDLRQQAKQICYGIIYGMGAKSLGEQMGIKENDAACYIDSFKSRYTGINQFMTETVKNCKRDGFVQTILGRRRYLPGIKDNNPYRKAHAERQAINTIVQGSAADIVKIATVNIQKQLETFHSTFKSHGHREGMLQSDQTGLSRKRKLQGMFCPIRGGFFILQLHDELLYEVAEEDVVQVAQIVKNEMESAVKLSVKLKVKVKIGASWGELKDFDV
For series [4], the target named is T2, DNA polymerase theta. The series can be described thus: Inhibition of N-terminal His8-tagged/C-terminal FLAG-tagged full length human DNA polymerase theta ( 1 to 2590 residues) polymerase activity expressed in HEK2936E cells. In kind it is cell-based.
Series [5] can be described thus: Toxicity in CD-1 mouse xenografted with BRCA2 knock out human HCT-116 cells assessed as drug tolerance at 80 mg/kg, po administered twice a day for 21 days. In kind it is organism-based. The note with it: in vivo, 504 h, time 21 day. (In general: Xenograft models place foreign cells or tissue in a host animal.)
A short description of series [6]: Toxicity in CD-1 mouse xenografted with BRCA2 knock in human HCT-116 cells assessed as drug tolerance at 80 mg/kg, po administered twice a day for 21 days. The class given is organism-based. The note with it: in vivo, 504 h, time 21 day.
A short description of series [7]: Toxicity in CD-1 mouse xenografted with BRCA2 knock in human HCT-116 cells assessed as body weight loss at 80 mg/kg, po administered twice a day for 21 days. In kind it is organism-based. The note with it: in vivo, 504 h, time 21 day.
A short description of series [8]: Half-life in CD-1 mouse at 2.5 mg/kg, po or 2.5 mg/kg, iv measured upto 24 hrs by reverse phase LCMS analysis. The class given is ADME, organism-based. The note with it: in vivo.
Series [9] can be described thus: fCaverage in CD-1 mouse. The class given is ADME.
A short description of series [10]: Volume of distribution at steady state in CD-1 mouse at 2.5 mg/kg, po or 2.5 mg/kg, iv measured upto 24 hrs by reverse phase LCMS analysis. The class given is ADME, organism-based. The note with it: in vivo.
The target in series [11] is T2, DNA polymerase theta. Briefly: Inhibition of DNA polymerase theta in LIG4 knock out HEK293T cells assessed as decrease in MMEJ-mediated DNA repair preincubated for 1 day followed by lentivirus solution addition for 24 hrs prior to media replacement with compound and measured after 96 hrs by flow cytometry based traffic-light reporter assay. The class given is cell-based. (In general: In flow cytometry, cells or beads pass a laser one at a time.)

A short description of series [12]: Inhibition of Alt-Ej-mediated DNA repair in LIG4 knock out HEK293T cells. In kind it is functional, cell-based, Homo sapiens. The note with it: hek-293t.
The nature of series [13]: Oral bioavailability in CD-1 mouse at […] measured upto 24 hrs by reverse phase LCMS analysis. The following applies: in vivo. The class given is ADME, organism-based.
Series [14] can be described thus: Toxicity in CD-1 mouse xenografted with BRCA2 knock out human HCT-116 cells assessed as body weight loss at 80 mg/kg, po administered twice a day for 21 days. In kind it is organism-based. The following applies: in vivo, 504 h, time 21 day.
Series [15] can be described thus: AUC in CD-1 nude mouse at 80 mg/kg, po administered twice daily and measured on day 7 by HPLC-MS analysis. The note with it: in vivo. More on the design: time 7 day, dose 80 mg/kg, route po. The class given is ADME, organism-based.
The nature of series [16]: Inhibition of MMEJ-mediated DNA repair in CRSIPRR/Cas9-induced wildtype human HCT-116 cells incubated for 24 hrs by PCR analysis. In kind it is functional, cell-based.
The nature of series [17]: AUC in CD-1 nude mouse at 80 mg/kg, po administered twice daily and measured on day 1 by HPLC-MS analysis. The class given is ADME, organism-based. More on the design: dose 80 mg/kg, time 1 day, route po. The note with it: in vivo.

`Nc1ccc(C#CCN(C(=O)Cc2ncc(C(F)(F)F)cc2C(F)(F)F)c2ccc(F)cc2)nn1`: the AUC in series [1] stood at 49.7 µM·h. Moreover, the IC50 in the series with HCT-116 was more than 15000 nM; in series [2] it was more than 100000 nM; against DNA polymerase theta [3] it was 5.8 nM; on DNA polymerase theta [4], 0.55 nM; on DNA polymerase theta [11], 940 nM; in series [12], 2150 nM. Also, in series [16], half-maximal inhibition (IC50) was put at 450 nM. The Activity entry in series [5], in series [6], in [7] and in series [14] was “Non-Toxic” in each case. Further, the t1/2 in series [8] is 24 min. Further, the “f(Cave)” value in series [9] amounted to 107 nM. Moreover, in series [10], the Vdss came out at 1.1 L/kg. Further, the bioavailability in [13] came to 66%. Further, the AUC at 168 h in series [15] is 14.7 µM·h. The compound also returned an AUC at 24 h in series [17] of 32.6 µM·h.

The AUC is the area under the concentration-time curve, a measure of exposure. Lower therefore signals less exposure. The IC50 is the concentration that inhibits the measured activity by half. For orientation: bioavailability means dose-corrected exposure relative to a reference, in per cent. A high value points to good availability.
